Converted amounts (≈) assume the structure as drawn. Read-outs that look alike come from different tables or passages of the source.

Assay [1] has as its system S. mutans ATCC 25175. Description: Disc diffusion assay (DDA). Format: cell-based, Streptococcus mutans. To be noted: 200 μg per disc, 48 hours at 37° C., 5% carbon dioxide, single plates. The source says: (a) staphylococci. The Staphylococcus aureus strain used was ATCC 29213. S. aureus and other staphylococci are common causes of a wide range of skin, skin structure and wound infections; S. aureus is also known to exacerbate eczema. The ATCC 29213 strain is known to be susceptible to beta-lactam antibiotics such as methicillin. The Staphylococcus epidermidis strain used was NCTC 11047. Staph. epidermidis forms part of the resident flora of skin and is an opportunistic pathogen which can cause biofilms to grow for instance on plastic surgical implants such as catheters. Unless otherwise stated, the staphylococci were cultured and maintained on Mueller-Hinton Medium (agar and broth) at pH 7.2; cultures were incubated aerobically at 37° C. for 19-20 hours, at pH 7 (±0.2). (b) C. striatum NCTC 764. Corynebacterium striatum is closely related to organisms (aerobic diphtheroids of the genus Corynebacterium) that cause body odour. It was cultured and maintained on Mueller-Hinton medium (agar and broth). All cultures were incubated aerobically at 37° C. for 72 hours, at pH 7 (±0.2). (c) streptococci. The strains tested were S. mutans ATCC 25175 and S. pyogenes ATCC 12344. […] The diameter of this zone of “inhibition” was measured using a ProtoCOL™ automated zone sizer (Synbiosis, Cambridge, UK). […]
(A growth-free zone around the sample is the usual read-out of agar diffusion tests.)

Assay [2] relates to S. mutans ATCC 25175. Briefly: MIC assay. Format: cell-based, Streptococcus mutans. To be noted: Wilkins-Chalgren broth pH 7 (±0.2). How it is done: This is a standard international method for quantitatively assessing the antimicrobial activity of a compound in a liquid medium. The method used a sterile 96-well microtitre plate, capable of holding about 200 μl of liquid per well. […] The culture medium was as described above.
The wells were inoculated with a liquid suspension of freshly grown micro-organism and incubated under the conditions described above. After incubation, the microtitre plate was examined visually (with the aid of a light box) for cloudiness in each well, which would indicate microbial growth. The MIC value was recorded as the lowest concentration of test compound required to inhibit microbial growth, ie the lowest concentration for which the liquid in the well remained clear.
The assays included both negative (culture medium with no micro-organisms) and positive (culture medium plus diluting solvent plus micro-organism) controls.

The test system of assay [3] is P. acnes NCTC 737. Description: Supplemented disc diffusion assay (lipid or salt). In kind it is cell-based, Propionibacterium acnes. To be noted: 200 μg compound per disc; for zone of inhibition at 200 µg/disc: Cutibacterium acnes, NCTC737. How it is done: A sterile paper disc was impregnated with a sample of the test compound in a suitable solvent and 30 minutes allowed for the solvents to evaporate (where possible). The disc was then placed on an agar plate onto which the test micro-organism had been inoculated. The plate was then incubated under the conditions described above, following which it was examined visually for signs of microbial growth. If the test compound had antimicrobial activity, a circular zone of no growth would be obtained around the disc. The diameter of this zone of “inhibition” was measured using a ProtoCOL™ automated zone sizer (Synbiosis, Cambridge, UK). In general, a greater diameter and/or area of the zone of inhibition indicates a greater antimicrobial activity in the relevant test compound, although other factors such as test compound mobility through the agar gel may also influence the result.
The DDA test may be carried out using an agar gel supplemented with lipid and/or salt to simulate some of the major components present in human skin and to assess whether these substances might affect the antimicrobial activity observed for the test compound. Performance under these conditions can provide a more reliable indication of activity on topical application. […]
The compounds copper (II) usnate (Just for Today Ltd), sodium usnate (Yick-Vic Chemicals) and usnic acid (Sigma-Aldrich) were tested against P. acnes NCTC 737, using MIC, MBC and DDA assays as described above. For copper usnate and usnic acid, supplemented DDA assays were also carried out. DMSO was used as the solvent for all three test compounds. For the DDAs, 200 μg of the relevant test compound was loaded onto each disc. The MIC and MBC assays were conducted in triplicate, as were the DDAs for copper usnate.

For the compound `CC(=O)c1c([O-])c(C)c([O-])c2c1OC1=CC(=O)C(C(C)=O)C(=O)C12C.[Cu+2]` (centres unmarked) [Copper usnate, copper (II) usnate], in assay [1], the DDA zone diameter turned out to be 32.4 mm. Also, in assay [2], the MIC came to 1.95 µg/mL. In addition, the “DDA zone diameter, +1% NaCl” value in assay [3] (medium +1% NaCl) was 42.9 ± 0.4 mm. In assay [3] (medium +1% triolein), the “DDA zone diameter, +1% triolein” value turned out to be 27.4 ± 1.5 mm.
Consider `CC(=O)c1c(O)c(C)c(O)c2c1OC1=CC(=O)C(C(C)=O)C(=O)C12C` (centres unmarked) [Usnic acid, 2,6-diacetyl-7,9-dihydroxy-8,9b-dimethyl-1,3(2H,9bh)-dibenzofurandione], for which the zone of inhibition at 200 µg/disc in assay [1] (Streptococcus mutans, ATCC25175, read-out: DDA zone diameter) was determined as 31.2 mm; in assay [3] (medium +1% NaCl, read-out: DDA zone diameter, +1% NaCl), 29.8 mm; in assay [3] (medium +1% triolein, read-out: DDA zone diameter, +1% triolein), 10.9 mm. Also, in assay [2] (Streptococcus mutans, ATCC25175, read-out: MIC), the MIC is 3.9 µg/mL (≈ 11.3 µM).

What is called MIC is the smallest concentration in the dilution series that meets the test's criterion for growth inhibition.

Values taken from patent US20120270935A1, “FORMULATIONS” (priority 2009, published 2012).
